Paper PMC8216281, “RNA pull-down confocal nanoscanning (RP-CONA) detects quercetin as pri-miR-7/HuR interaction inhibitor that decreases α-synuclein levels” (Nucleic Acids Research, 2021)

Tests used:
HuR [1] = target: T1, HuR (Homo sapiens, UniProt Q15717); test: RP-CONA on-bead confocal assay: inhibition of mCherry-HuR binding to pri-miR-7-1-CTL RNA in cell lysate; confirmed by RNA pull-down/western blot; assay type: biochemical
T1 construct: gene ELAVL1; mCherry-HuR (HuR open reading frame), overexpressed in HuR KO HEK293T lysate

HuR [2] = target: T1, HuR; test: RP-CONA on-bead confocal assay: inhibition of mCherry-HuR binding to pri-miR-7-1-CTL RNA in cell lysate; confirmed by RNA pull-down/western blot and RIP in cells; assay type: biochemical

T1 sequence (Q15717 2-326): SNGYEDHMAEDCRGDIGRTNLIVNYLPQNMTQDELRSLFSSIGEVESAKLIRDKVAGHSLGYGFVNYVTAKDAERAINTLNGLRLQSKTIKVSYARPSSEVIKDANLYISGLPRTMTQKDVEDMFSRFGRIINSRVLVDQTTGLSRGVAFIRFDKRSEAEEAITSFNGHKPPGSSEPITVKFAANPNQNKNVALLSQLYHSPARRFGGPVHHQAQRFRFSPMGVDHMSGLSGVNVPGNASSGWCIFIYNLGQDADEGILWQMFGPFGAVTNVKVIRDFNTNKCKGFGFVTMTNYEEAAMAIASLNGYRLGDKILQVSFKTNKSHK

IC50 (HuR [1]) [µM] | SMILES | IC50 (HuR [2]) [µM]
2.03 ± 0.25 | O=c1cc(-c2ccc(O)c(O)c2)oc2cc(O)cc(O)c12 [luteolin] | 
 | O=c1c(O)c(-c2ccc(O)c(O)c2)oc2cc(O)cc(O)c12 [quercetin] | 2.15 ± 0.16
